Source: patent US20240352012A1, “PAN-CASPASE INHIBITORS” (GEORGE MASON UNIVERSITY, priority 2023, published 2024)

Tests used:
[1] = target: T1, Caspase 3 (Homo sapiens, UniProt P42574)
T1 sequence (P42574 29-175 limits assumed): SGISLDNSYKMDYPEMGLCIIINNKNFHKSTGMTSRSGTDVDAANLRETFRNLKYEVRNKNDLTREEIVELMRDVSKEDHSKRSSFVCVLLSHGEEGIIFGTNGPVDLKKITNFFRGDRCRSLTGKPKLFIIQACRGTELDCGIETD
T1 sequence (P42574 176-277 limits assumed): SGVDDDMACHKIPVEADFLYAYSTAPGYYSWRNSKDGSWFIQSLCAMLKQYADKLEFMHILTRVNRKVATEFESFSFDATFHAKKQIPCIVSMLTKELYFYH
Method: (§1) Caspase 3 screening assays were performed similar to the assays described by Okun et al. [61]. […] The direct fluorometric enzyme assay was performed in a 96 well plate which was read in a temperature-controlled plate reader equipped with a 400-nm excitation filter and 505-nm emission filter. The fluorescence was read every one minute for 60 minutes.
(§2) A volume of 1 μL of DMSO solution was added to 24 μL H2O to produce a final volume of 25 μL/well in a 96 well plate. A volume of 2.5 μL of the Active caspase 3 was added. 2) A positive inhibition control was prepared by adding 1 μL of the caspase 3 Inhibitor (Z-DEVD-FMK, provided in the kit) instead of the tested compounds. 3) The other positive inhibition control was prepared by adding 1 μL of the caspase 3/7 Inhibitor (Compound C2, purchased from ApexBio company A1925) instead of the tested compounds. 4) A negative inhibition control was prepared using pure DMSO without the inhibitor. A volume of 1 μL of pure DMSO to 24 μL H2O to a final volume of 25 μL/well. 5) Master Mix was prepared for each assay containing the follows: a. 22.5 μL 2× Reaction Buffer (containing 10 mM DTT). b. 2.5 μL of the 1 mM Ac-DEVD-AFC substrate (50 μM final concentration). 6) Master Mix was mixed well then 22.5 μL of the Master Mix was added quickly to each well to start the reaction. 7) Samples were read in Gemini EM fluorescence Microplate reader with a 400 nm excitation wavelength and 505 nm emission wavelength every 1 minute for duration of 1 hour at 37° C. 8) Data was exported in an Excel spread sheet format and processed to determine the % inhibition compared to the controls in each plate. The IC50 was calculated using Graphpad PRISM 7 software.
(§3) All designed compounds were screened at a fixed concentration of 10 PM.

[2] = target: T2, Caspase 7 (Homo sapiens, UniProt P55210); assay: biochemical
T2 sequence (P55210 24-198 limits assumed): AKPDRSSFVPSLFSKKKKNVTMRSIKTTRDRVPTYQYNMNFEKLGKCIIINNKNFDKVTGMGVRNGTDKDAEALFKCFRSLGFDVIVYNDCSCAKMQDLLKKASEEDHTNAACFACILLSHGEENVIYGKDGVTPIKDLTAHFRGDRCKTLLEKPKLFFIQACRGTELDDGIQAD
T2 sequence (P55210 207-303 limits assumed): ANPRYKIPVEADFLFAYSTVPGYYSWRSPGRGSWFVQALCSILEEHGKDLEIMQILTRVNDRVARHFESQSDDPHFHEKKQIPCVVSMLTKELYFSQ

[3] = target: T1, Caspase 3; assay: biochemical
Method: as §1, §2, §3

[4] = target: T3, Caspase 1 (Homo sapiens, UniProt P29466); assay: Caspase 1 inhibitor screening and IC50 assay (direct fluorometric enzyme assay); type: biochemical; details: calculated by Graphpad PRISM 7; read-out: IC50 (nM) against Caspase 1
T3 construct: purchased Raybiotech Company 68FL-Casp1-S200
T3 sequence (P29466 120-297 limits assumed): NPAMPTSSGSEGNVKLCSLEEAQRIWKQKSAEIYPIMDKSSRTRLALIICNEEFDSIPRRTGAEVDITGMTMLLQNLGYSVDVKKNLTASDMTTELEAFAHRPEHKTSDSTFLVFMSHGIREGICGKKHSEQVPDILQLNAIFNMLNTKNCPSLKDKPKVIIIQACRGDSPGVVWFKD
T3 sequence (P29466 317-404 limits assumed): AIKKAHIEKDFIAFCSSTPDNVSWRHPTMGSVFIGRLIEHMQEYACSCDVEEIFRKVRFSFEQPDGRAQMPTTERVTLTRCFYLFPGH
Method: Caspase 3 screening assays were performed similar to the assays described by Okun et al. [61]. The caspase 3 inhibitor drug screening kits were purchases from Raybiotech Company (Caspase 3: Item number is 68SR-Casp3S100), (Caspase 7: Item number is 68SR-Casp7-S100), and (Caspase 1: Item number is 68FL-Casp1-S200). The direct fluorometric enzyme assay was performed in a 96 well plate which was read in a temperature-controlled plate reader equipped with a 400-nm excitation filter and 505-nm emission filter. The fluorescence was read every one minute for 60 minutes.

| SMILES | inhibition [1] [%] | IC50 [2] [nM] | IC50 [3] [nM] | IC50 [4] [nM] |
| --- | --- | --- | --- | --- |
| Cc1cc(N2C(=O)c3c(C)nc4ccc(F)cc4c3C2=O)c2ccccc2n1 [Compound F4, 8-fluoro-4-methyl-2-(2-methylquinolin-4-yl)-1H,2H,3H-pyrrolo[3,4-c]quinoline-1,3-dione] | ~30 |  |  |  |
| Cc1cc(N2C(=O)c3c(C)nc4ccccc4c3C2=O)c2ccccc2n1 [Compound H4, 4-methyl-2-(2-methylquinolin-4-yl)-1H,2H,3H-pyrrolo[3,4-c]quinoline-1,3-dione] | ~30 |  |  |  |
| Cc1nc2ccccc2c2c1C(=O)N(c1ccc(I)cc1)C2=O [Compound H11, 2-(4-iodophenyl)-4-methyl-1H,2H,3H-pyrrolo[3,4-c]quinoline-1,3-dione] | ~25 |  |  |  |
| Cc1ccc(N2C(=O)c3c(C)nc4ccccc4c3C2=O)cc1 [Compound H13, 4-methyl-2-(4-methylphenyl)-1H,2H,3H-pyrrolo[3,4-c]quinoline-1,3-dione] | ~25 |  |  |  |
| Cc1cc(N2C(=O)c3c(C)nc4ccc(S(=O)(=O)N5CCOCC5)cc4c3C2=O)c2ccccc2n1 [MO4, 4-methyl-2-(2-methylquinolin-4-yl)-8-(morpholine-4-sulfonyl)-1H,2H,3H-pyrrolo[3,4c]quinoline-1,3-dione] |  | 35.2 | 742 | 178 |
| Cc1nc2ccc(S(=O)(=O)N3CCOCC3)cc2c2c1C(=O)N(c1ccc(I)cc1)C2=O [MO11, 2-(4-iodophenyl)-4-methyl-8-(morpholine-4-sulfonyl)-1H,2H,3H-pyrrolo[3,4-c]quinoline1,3-dione] |  |  | 100 to 300 |  |
| Cc1ccc(N2C(=O)c3c(C)nc4ccc(S(=O)(=O)N5CCOCC5)cc4c3C2=O)cc1 [MO13, 4-methyl-2-(4-methylphenyl)-8-(morpholine-4-sulfonyl)-1H,2H,3H-pyrrolo[3,4-c]quinoline1,3-dione] |  | 145 | 164 | 361 |
| C#Cc1cccc(N2C(=O)c3c(C)nc4ccc(S(=O)(=O)N5CCCCC5)cc4c3C2=O)c1 [PE5, 2-(3-ethynylphenyl)-4-methyl-8-(piperidine-1-sulfonyl)-1H,2H,3H-pyrrolo[3,4-c]quinoline1,3-dione] |  | 408 | 785 | 261 |
| Cc1nc2ccc(S(=O)(=O)N3CCCC3)cc2c2c(=O)n(-c3ccccc3)[nH]c(=O)c12 [PY6B, 5-methyl-2-phenyl-9-(pyrrolidine-1-sulfonyl)-1H,2H,3H,4H-pyridazino[4,5-c]quinoline-1,4dione] |  |  | ~4000 |  |
